The values below come from ChEMBL document CHEMBL1140658, “Inhibitors of anthrax lethal factor” (Bioorg Med Chem Lett, 2007).

Active and inactive are the calls of the source. No cut-off for these calls is given here.

Assay [1] concerns the target T1, Lethal factor (Bacillus anthracis, UniProt P15917).
T1 sequence (P15917 whole entry): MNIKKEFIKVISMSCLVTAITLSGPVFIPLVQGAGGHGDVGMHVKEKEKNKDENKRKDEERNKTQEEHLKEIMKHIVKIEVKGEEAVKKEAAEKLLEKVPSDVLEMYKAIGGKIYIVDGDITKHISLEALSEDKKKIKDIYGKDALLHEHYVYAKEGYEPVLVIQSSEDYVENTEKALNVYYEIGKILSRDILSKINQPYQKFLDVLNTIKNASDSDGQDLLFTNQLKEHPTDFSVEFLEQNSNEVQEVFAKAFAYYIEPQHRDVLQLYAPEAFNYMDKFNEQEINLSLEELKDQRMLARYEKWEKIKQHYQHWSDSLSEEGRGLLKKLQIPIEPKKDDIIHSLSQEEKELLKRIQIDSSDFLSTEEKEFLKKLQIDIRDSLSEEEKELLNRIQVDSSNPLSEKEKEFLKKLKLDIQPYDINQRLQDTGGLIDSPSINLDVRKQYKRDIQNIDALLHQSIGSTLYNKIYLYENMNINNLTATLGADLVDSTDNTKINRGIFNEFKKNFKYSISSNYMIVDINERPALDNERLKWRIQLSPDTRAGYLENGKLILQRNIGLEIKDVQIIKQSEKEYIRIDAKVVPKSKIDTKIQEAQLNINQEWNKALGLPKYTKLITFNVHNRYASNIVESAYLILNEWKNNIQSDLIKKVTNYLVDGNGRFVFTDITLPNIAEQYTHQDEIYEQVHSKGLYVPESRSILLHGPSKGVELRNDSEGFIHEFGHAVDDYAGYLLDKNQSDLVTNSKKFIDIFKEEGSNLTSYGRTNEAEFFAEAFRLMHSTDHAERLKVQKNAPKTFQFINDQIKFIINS
Description: Inhibition of anthrax lethal factor by FRET assay.

Assay [2] concerns J774.A1. Put plainly: Inhibition of anthrax lethal factor induced J774A.1 cell death at 20 uM by MTT assay. Type of assay: functional, Mus musculus. On the set-up: scale not given: the % may be the effect or the level left. For orientation: Tetrazolium assays rely on reduction of a dye to a coloured formazan, in cell work by metabolically active cells.
Assay [3] has as its system J774.A1. Description: Cytotoxicity against J774A.1 cells assessed as cell viability at 30 uM after 4 hrs by MTT assay. Type of assay: functional, cell-based. Particulars: Mus musculus.
The subject of assay [4] is J774.A1. Description: Inhibition of anthrax lethal factor induced J774A.1 cell death at 85 uM by MTT assay. The settings on record: Mus musculus. The assay is classed as functional, cell-based.
Assay [5] deals with T2, Lethal factor (Bacillus anthracis) (UniProt P15917).
T2 sequence (whole entry): T1 sequence (P15917 whole entry)
Put plainly: (§1) Inhibition of anthrax lethal factor upto 100 uM by FRET assay.

Assay [6] concerns the target T2, Lethal factor (Bacillus anthracis). Described as §1. The source holds these as a separate data set.
The subject of assay [7] is J774.A1. Put plainly: Cytotoxicity against J774A.1 cells assessed as cell viability upto 30 uM after 4 hrs by MTT assay. Type of assay: functional, cell-based. The settings on record: Mus musculus.
Assay [8] concerns J774.A1. Description: Inhibition of anthrax lethal factor induced J774A.1 cell death by MTT assay. The assay is classed as functional, cell-based. The settings on record: Mus musculus.

On to `CCCCCCCC/C=C\CCCCCCCC(=O)NCCc1cc(O)c(O)c(O)c1`, for which, in assay [1], inhibition was half-maximal at 13 µM (IC50) and the Ki – broadly, a measure of affinity in units of concentration, obtained from inhibition or displacement – came to 1.7 µM. In assay [2], this molecule returned an Activity of 46%. Further, the result in assay [3] was inactive. Further, the outcome in assay [4] was inactive.
For the molecule `CCCCCCCC/C=C\CCCCCCCC(=O)NCCc1ccc(OC)c(OC)c1`, the result in assay [5] and in assay [6] was inactive.
Consider `CCCCCCCC/C=C\CCCCCCCC(=O)NCCc1ccc(C(=O)NO)cc1`, for which, in assay [1], the IC50 (usually the concentration at which inhibition is half-maximal) came out at 32 µM and affinity was put at a Ki of 6 µM.
In turn, `CCCCCCCC/C=C\CCCCCCCC(=O)NCCc1cc(O)c(O)cc1O` came in with an IC50 in assay [1] of 70 µM.
Consider `CCCCCCCC/C=C\CCCCCCCC(=O)NCCc1ccc(O)cc1`, for which the outcome in assay [5] and in assay [6] was inactive.
On to `CCCCCCCC/C=C\CCCCCCCC(=O)NCCc1ccc(O)c(O)c1` [OLEOYL DOPAMINE], for which, in assay [7], the Activity result was “Not toxic”. In assay [8], this molecule registered an IC50 of 5 µM. In assay [1], the IC50 was 15 µM and the affinity corresponds to a Ki of 3 µM.
